From ChEMBL document CHEMBL5532686, “Azole-based compounds as potential anti-Acanthamoeba agents” (RSC Med Chem, 2024)
≈ marks a conversion by molar mass, not a printed value. Calls of active or inactive are those of the source. The calls are words filed in the database; no cut-off is given here.

What was measured:
Acanthamoeba castellanii [1] = assay: Anti-amoebic activity against Acanthamoeba castellanii genotype T4 (ATCC 50492) trophozoites assessed as reduction in encystation at 100 ug/ml incubated for 48 hrs by hemocytometer analysis; type: functional, organism-based; details: dose 100.0 µg/ml
Acanthamoeba castellanii [2] = assay: Anti-amoebic activity against Acanthamoeba castellanii genotype T4 (ATCC 50492) trophozoites assessed as reduction in amoebae viability at 100 ug/ml incubated for 24 hrs by trypan blue exclusion test; type: functional
Acanthamoeba castellanii [3] = assay: Anti-amoebic activity against Acanthamoeba castellanii genotype T4 (ATCC 50492) trophozoites assessed as reduction in amoebae viability incubated for 24 hrs by trypan blue exclusion test; type: functional
Acanthamoeba castellanii [4] = assay: Anti-amoebic activity against Acanthamoeba castellanii genotype T4 (ATCC 50492) cysts assessed as reduction in excystation incubated for 24 to 72 hrs by hemocytometer analysis; type: functional; details: time 24-72 hrs
HCT-116 [5] = assay: Cytotoxicity against human HCT-116 cells at 100 ug/ml incubated for 24 hrs by LDH assay; type: toxicity, cell-based; details: hct-116, 24 h, at 100 µg/mL
Acanthamoeba castellanii [6] = assay: Anti-amoebic activity against Acanthamoeba castellanii genotype T4 (ATCC 50492) cysts assessed as reduction in excystation at 100 ug/ml incubated for 24 to 72 hrs by hemocytometer analysis; type: functional; details: time 24-72 hrs
Acanthamoeba castellanii [7] = assay: Anti-amoebic activity against Acanthamoeba castellanii genotype T4 (ATCC 50492) trophozoites infected in human HCT-116 cells assessed as protection against amoebae infection at 100 ug/ml amoebae pretreated with compound for 2 hrs followed by host cell infection and measured after 24 hrs by LDH assay; type: functional, organism-based; details: dose 100.0 µg/ml, time 26.0 hrs
HCT-116 [8] = assay: Cytotoxicity against human HCT-116 cells at 5X excystation MIC50 concentration incubated for 24 hrs by LDH assay; type: toxicity, cell-based; details: hct-116, 24 h

| MIC50 (Acanthamoeba castellanii [3]) [µg/mL] | MIC50 (Acanthamoeba castellanii [4]) [µg/mL] | Structure (SMILES) | Activity (Acanthamoeba castellanii [1]) | inhibition at 100 µg/mL (Acanthamoeba castellanii [2]) [%] | Activity (HCT-116 [5]) [%] | inhibition at 100 µg/mL (Acanthamoeba castellanii [6]) [%] | Activity (Acanthamoeba castellanii [7]) | Activity (HCT-116 [8]) [%] |
| --- | --- | --- | --- | --- | --- | --- | --- | --- |
| 180 (≈ 373 µM) | 19.5 (≈ 40.6 µM) | Cc1ccc(-n2c(SCc3cccc(C(F)(F)F)c3)nnc2-c2ccc(C(C)(C)C)cc2)cc1 | inactive | 27 | 35 | 86 | inactive |  |
| 125 (≈ 235 µM) | 32 (≈ 60.1 µM) | CC(C)c1ccc(-c2nnc(SCc3cccc(C(F)(F)F)c3)n2-c2cccc(Br)c2)cc1 | inactive | 34 |  | 77 | inactive | 17 |
| 239 (≈ 512 µM) | 85.5 (≈ 183 µM) | CC(C)(C)c1ccc(-c2nnc(SCc3cccc(C(F)(F)F)c3)n2-c2ccccc2)cc1 | inactive | 17 |  | 78 | inactive |  |
| 144 (≈ 287 µM) | 80.6 (≈ 160 µM) | CC(C)(C)c1ccc(-c2nnc(SCc3cccc(C(F)(F)F)c3)n2-c2cccc(Cl)c2)cc1 | inactive | 25 | 35 | 78 | inactive |  |
